This note sets out measurements from patent US10647680B2, “Urea compound, preparation method therefor and medical use thereof” (Ancureall Pharmaceutical (Shanghai) Co., Ltd., priority 2016, dated 2020).

Holding throughout (assay type): cell-based
In assay [1] the test system is SH-SY5Y (expressing ALK F1174L mutant protein). Description: In vitro growth inhibition (GI50), SH-SY5Y. To be noted: Homo sapiens. From the text: (§1) Tumor cell line is an effective cell model for studying the inhibition of tumor cell growth or proliferation in vitro. In the present invention, a representative tumor cell line was selected to determine the cell growth inhibition activity of the present compound. All cell lines used were from ATCC, DSMZ, and the Cell Bank of the Chinese Academy of Sciences. Cell culture conditions and methods were in accordance with the requirements of each cell line. Cells were subcultured in vitro for no more than 3 passages each time, and as required, single-clone purification and identification of cell lines could be carried out.
(§2) The cell culture media used were RPMI1640 (Gibco), MEM (Gibco), McCOY'S5A (Gibco), and IMDM (Gibco). The complete medium was prepared by supplement with 5˜20% fetal calf serum (Gibco), 1% double-antibiotics (10000 units/mL penicillin and 10000 units/mL), 2 mM glutamine or 1 mM sodium pyruvate, respectively.
Human non-small cell lung cancer cell line NCI-H2228 (expressing EML4-ALK fusion gene, ATCC) and human anaplastic large cell lymphoma cell line Karpas-299 (expressing NPM-ALK fusion gene, ATCC) were cultured in complete medium comprising 1×RPMI1640 (10% FBS), respectively. Neuroblastoma cell line SH-SY5Y (expressing ALK F1174L mutant protein, Shanghai Cell Bank, Chinese Academy of Sciences) was cultured in MEM complete medium (1×MEM, 10% FBS, 1% NEAA, 1 mM sodium pyruvate).
(§3) Adherent cells were digested with 0.25% pancreatin-EDTA (Gibco). The suspension cells were collected by centrifugation. The supernatant was discarded and the cell pellet was resuspended and counted. Different cell concentrations (5˜10×10^4 cells/mL) were prepared according to the growth cycle of each cell line and then seeded on a 96-well plate (Corning), 100 μL/well. The cells were incubated overnight at 37° C., 5% CO2. The compounds were added to the cells on the second day with 2 wells in parallel. The final concentration of organic solvent shall not exceed 1%. The cells were continually incubated for 3 to 5 days, and then subjected to MTT assay.
(§4) The compound of the present invention and the control compound were dissolved in DMSO (Sigma) respectively, with the purity of more than 98%. The compound was stored in a concentration of 10 mM at −20° C. and diluted to 2- or 10-fold series prior to use.
(§5) Dojindo CCK8 reagent kit was used as MTT assay. THERMO […] FC meter was used as microplate reader.
(§6) For adherent cells, culture medium was removed and immediately replaced with the fresh prepared medium which contains 10% CCK8 reagent (100 μL/well). For the suspension cells, CCK8 was directly added to 10% of the final concentration. The cells were continually incubated for 1˜4 h. When a dark yellow color could be observed in the solvent control wells, the absorbance value at OD450 nm was measured and the cell growth rate was calculated according to the following formula: Cell Growth Rate (%)=100*(T−T0)/(C−T0) T=optical density of drug treatment cell well—optical density of blank control well; T0=optical density of cell well before drug treatment—optical density of blank control well; C=optical density of cell well of solvent control group—optical density of blank control well. The concentration value of 50% inhibition of cell growth (GI50) was calculated according to the drug concentration and cell growth rate curve. The experiment was independently repeated 1˜3 times, and subject to biological statistical analysis. 4. Experimental Results
(§7) Tumor cell growth inhibition test was performed by selecting representative compounds (compounds 4, 11, 12, 16, 27, 68, 71, 77, 79, 89 and 116 of the present invention). The initial concentration of the compound was 5,000 nM, then it was serially diluted by 2-fold or 10-fold to 0.01 nM. The GI50 value of each test compound was calculated according to the GI50 assay and calculation method. The experiments were repeated 1 to 3 times, and data were subjected to biological statistical analysis.

In the next assay the test system is NCI-H1581 (FGFR1 amp). Description: In vitro growth inhibition (GI50), NCI-H1581. Conditions: Homo sapiens.
Text: as §1, §2
Human non-small cell lung cancer cell NCI-H1581 (FGFR1 amp, ATCC) is an FGFR1 gene amplified/overexpressed tumor cell line. It was cultured in complete medium comprising 1×RPMI1640 with 10% FBS.
as §3, §4, §5, §6, §7

Assay [2] concerns OCI-AML3 (NPMc+ mutant type). Description: In vitro growth inhibition (GI50), OCI-AML3. Conditions: Homo sapiens, OCI-AML-3; Cell lines of leukemia; read-out: GI 50 OCI- AML3 NPMc+.

For `CC(C)(C)c1cc(NC(=O)Nc2ccc(-n3cnc4cc(OCCN5CCOCC5)ccc43)cc2)[nH]n1` [Compound 89, 1-(5-tert-butyl-2H-pyrazol-3-yl)-3-{4-[5-(2-morpholin-4-yl-ethoxyl)-benzimidazol-1-yl]-phenyl}-urea], the GI50 in assay [1] was more than 2500 nM; with NCI-H1581 (FGFR1 amp), more than 2500 nM; in assay [2] it was 100 to 1000 nM.
In the case of `CC(C)(C)c1cc(NC(=O)Nc2ccc(-n3cnc4cc(O)ccc43)cc2)no1` [Compound 4, 1-(5-tert-butyl-isoxazol-3-yl)-3-[4-(5-hydroxy-benzimidazol-1-yl)-phenyl]-urea], the GI50 in assay [1] was more than 2500 nM; in the assay on NCI-H1581 (FGFR1 amp) it was more than 2500 nM; in assay [2], more than 1000 nM.
Take `CC(C)(C)c1cc(NC(=O)Nc2ccc(-n3cnc4cc(OCCO)ccc43)cc2)no1` [Compound 11, 1-(5-tert-butyl-isoxazol-3-yl)-3-{4-[5-(2-hydroxy-ethoxyl)-benzimidazol-1-yl]-phenyl]-urea]: the GI50 is more than 2500 nM in assay [1], more than 2500 nM in the assay on NCI-H1581 (FGFR1 amp) and more than 1000 nM in assay [2].
Take `COCCOc1ccc2c(c1)ncn2-c1ccc(NC(=O)Nc2cc(C(C)(C)C)n[nH]2)cc1` [Compound 77, 1-(5-tert-butyl-2H-pyrazol-3-yl)-3-{4-[5-(2-methoxyl-ethoxyl)-benzimidazol-1-yl]-phenyl}-urea]: the GI50 is more than 2500 nM in assay [1], more than 2500 nM with NCI-H1581 (FGFR1 amp) and more than 1000 nM in assay [2].
For `CC(C)(C)c1cc(NC(=O)Nc2ccc(-n3cnc4ccccc43)cc2)[nH]n1` [Compound 68, 1-(4-benzimidazol-1-yl-phenyl)-3-(5-tert-butyl-2H-pyrazol-3-yl)-urea], the GI50 was more than 2500 nM in assay [1], more than 2500 nM in the assay on NCI-H1581 (FGFR1 amp) and more than 1000 nM in assay [2].
Consider `CC(C)(C)c1cc(N)n(C(=O)Nc2ccc(-n3cnc4ccccc43)cc2)n1` [Compound 116, 5-amino-3-tert-butyl-pyrazol-1-carboxylic acid (4-benzimidazol-1-yl-phenyl)-amide], for which the GI50 in assay [1] is more than 2500 nM; in the assay with NCI-H1581 (FGFR1 amp) it was more than 2500 nM; in assay [2], more than 1000 nM.
Consider `CC(C)(C)c1cc(NC(=O)Nc2ccc(-n3cnc4cc(OCCN5CCOCC5)ccc43)cc2)no1` [Compound 16, 1-(5-tert-butyl-isoxazol-3-yl)-3-{4-[5-(2-morpholin-4-yl-ethoxyl)-benzimidazol-1-yl]-phenyl}-urea], for which the GI50 in assay [1] is more than 2500 nM; in the assay on NCI-H1581 (FGFR1 amp), more than 2500 nM; in assay [2], more than 1000 nM.
Regarding `COc1ccc2c(c1)ncn2-c1ccc(NC(=O)Nc2cc(C(C)(C)C)n[nH]2)cc1` [Compound 71, 1-(5-tert-butyl-2H-pyrazol-3-yl)-3-[4-(5-methoxyl-benzimidazol-1-yl)-phenyl]-urea], the GI50 is more than 2500 nM in assay [1], more than 2500 nM in the assay on NCI-H1581 (FGFR1 amp) and more than 1000 nM in assay [2].
As to `CC(C)(C)c1cc(NC(=O)Nc2ccc(-n3cnc4cc(OCCO)ccc43)cc2)[nH]n1` [Compound 79, 1-(5-tert-butyl-2H-pyrazol-3-yl)-3-{4-[5-(2-hydroxy-ethoxyl)-benzimidazol-1-yl]-phenyl]urea], the GI50 was more than 2500 nM in assay [1], more than 2500 nM in the assay on NCI-H1581 (FGFR1 amp) and more than 1000 nM in assay [2].
With `CC(C)(C)c1cc(NC(=O)Nc2ccc(-n3cnc4ccc(OCCN5CCOCC5)cc43)cc2)no1` [Compound 27, 1-(5-tert-butyl-isoxazol-3-yl)-3-{4-[6-(2morpholin-4-yl-ethoxyl)-benzimidazol-1-yl]-phenyl}-urea], the GI50 was more than 2500 nM in assay [1], more than 2500 nM with NCI-H1581 (FGFR1 amp) and 100 to 1000 nM in assay [2].
